Measurements published in patent publication US7943598B2, “Use of organic glucosamine salts” (Bioiberica, S.A., priority 2004, dated 2011).

Tested on: aggrecan degradation induced with IL-1α
Test: Inhibition of aggrecan degradation (aggrecanolysis) induced with IL-1α in LTC chondrocyte culture, Western Blot with anti-G1 antibody
Assay type: cell-based, rat
Settings: for inhibition of aggrecanolysis induced by IL-1α vs. the control: LTC rat chondrosarcoma chondrocyte culture, 10 ng/mL IL-1α, 4 days, control = culture with only IL-1α
Protocol: The study of the inhibition of aggrecan degradation was performed on a chondrocyte culture from a rat chondrosarcoma cell line. This cell line, called LTC, deposits an extracellular matrix similar to the cartilage's, expresses all the components of the aggrecanase system, generates the fragmentation of aggrecan by said enzymes, and responds to known aggrecanolysis inhibitors such as glucosamine hydrochloride. The assays were performed on chondrocyte cultures from a rat chondrosarcoma cell line called LTC. The LTC cells were kept in a monolayer culture in a Gibco DMEM medium (Dulbecco's Modification of Eagle's Medium) (containing 4.5 g/L of glucose) supplemented with sodium bicarbonate (3.7 g/L), glutamine (2 mM), ascorbic acid (50 mg/L), gentamicin (50 mg/L), and bovine fetal serum Hyalone (10%), at pH 7.4. The confluent LTC cell cultures were trypsinised and 40,000 cells per 0.5 mL of culture were seeded in 48-well plates. They were maintained for 5 days, during which time they deposited 15-30 μg of glycosaminoglycans (GAG) in each well. The medium was separated, the cell membranes were washed by adding 5×1 mL of a catabolic medium {DMEM+4.5 g/L glucose supplemented with sodium bicarbonate (3.7 g/L), glutamine (2 mM), and 10 ng/mL of IL-1α (interleukin-1α) at pH 7.4}. Subsequently, the cultures were kept in 200 μL of this medium, supplemented or not with glucosamine hydrogen malate, for 4 days, without changing the medium, at 37° C. In order to verify the effect of glucosamine hydrogen malate on aggrecan degradation, a Western Blot was performed. For the Western Blot, 20 μL of 50 mM tris-acetate at pH 7.3 were added to each well. The cultures (medium+cell membrane) were deglycosylated with 50 mU of chondroitinase ABC at 37° C. for 4 hours. Subsequently, the samples in each well were recovered and centrifuged at 1,460 g for 10 minutes. 25 μL-fractions of the supernatant were separated by electrophoresis (gel gradient 8-12% SDS PAGE) and analysed by means of a Western Blot using anti-G1 antibody. The antiserum was used at a 1:5,000 dilution and the peroxidase-conjugated goat anti-(rabbit IgG) was detected by means of the Amersham ECL Kit. The exposure time ranged between 5 seconds and 5 minutes in order to obtain quantifiable images. The Western Blots were scanned and the bands were quantified by means of the SCION image analysis software. In relation to the described procedure, see: J. D. Sandy et al., Biochem. J. 335, 59-66 (1998).

Row | SMILES | inhibition of aggrecanolysis induced by IL-1α vs. the control (1 mM) | inhibition of aggrecanolysis induced by IL-1α vs. the control (10 mM) | effectiveness in inhibiting aggrecanolysis compared with glucosamine hydrochloride (FIG. 1) (10 mM, LTC culture with IL-1α)
1 | Cl.N[C@H]1C(O)O[C@H](CO)[C@@H](O)[C@@H]1O (some centres unmarked) [glucosamine hydrochloride, reference compound] | 83±4.9% | 53±5.8% | –
2 | N[C@H]1C(O)O[C@H](CO)[C@@H](O)[C@@H]1O.O=C(O)CC(O)C(=O)O (some centres unmarked) [glucosamine hydrogen malate, Glucosamine Hydrogen Malate] | 95±17.5% | 32±3.7% | significantly more effective than glucosamine hydrochloride
